Experiments:
Mut-OR52 = experiment: cAMP-mediated luciferase reporter gene assay, triple Arg mutant of consensus OR52; assay type: cell-based, human; details: FIG. 10F
Method: (§1) FIG. 10A-B. Consensus OR1, OR6, OR10 and OR52 are functionally expressed in Hana3A cells, as indicated by cAMP-mediated luciferase assays. (A) Heatmap of ORs responses to 30 uM odorant selected from a previously screened panel of 320 compounds. Luciferase activity was normalized for each OR by setting as 1.0 the highest response value, and 0 as the lowest response value. (B) Dose-response curve of consensus ORs to candidate ligands ranging from 0 to 316 uM or 1 mM. Cells transfected with pCI vector were used as a negative control. Luciferase activity was normalized by setting as 1.0 the highest response value, and 0 as the lowest response value of each experiment. n=3, error bars indicate SEM.
(§2) FIG. 10C-D-E-F. Improvement of OR expression by mutations in TM1 and Helix 8. (C) Homology model of hOR10. Each TM is highlighted in a colored tubes and residues D511.60, S521.61, H531.62 and E294H8 are represented in licorice (pink). (D) Zoom on the residues 1.60, 1.61, 1.62, H8 mutated for hOR1 (red), hOR10 (blue), hOR51 (green) and hOR52 (pink). […]
(§3) The consensus ORs already show a clear increase of cell surface expression in comparison to naturally-occurring ORs. […] Experiments evaluated the cell surface expression of the consensus ORs with their corresponding triple Arg mutants, including a well-studied non-olfactory class A GPCR, the muscarinic 3 receptor (M3) (FIG. 10E). […]

Mut-OR10 = experiment: cAMP-mediated luciferase reporter gene assay, triple Arg mutant of consensus OR10; assay type: cell-based, human; details: FIG. 10F
Method: as §1, §2, §3

Compound | response of Mut-OR52 to its agonist (luciferase activity) (Mut-OR52) | response of Mut-OR10 compared to consensus OR10 (Mut-OR10) | response of Mut-OR10 to its agonist (luciferase activity) (Mut-OR10; dose-response)
CCCCCCCCC(=O)O [nonanoic acid] | responded | – | –
CC(=O)/C=C/C1=C(C)CCCC1(C)C [0-ionone, β-ionone] | – | diminished compared to OR10 | responded
